# Test results reported in ChEMBL document CHEMBL1201862, “PubChem BioAssay data set” (2004).
# Active and inactive are the calls of the source.
# Legend:
# [1] = molecular target: Cytochrome P450 2D6 (Homo sapiens, UniProt P10635);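 note: CYP2D6 member of a cytochrome P450 panel assay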
# [2] = molecular target: Cytochrome P450 3A4 (Homo sapiens, UniProt P08684);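 note: CYP3A4 tested as one member of a cytochrome P450 panel screen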
# [3] = molecular target: Cytochrome P450 2C19 (Homo sapiens, UniProt P33261); test: Cytochrome panel assay with activity outcomes. Panel member name: p450-cyp2c19 Compounds with AC50 equal or less than 10 uM are considered active; type: functional; conditions: read-out: AC50
# [4] = cells; type: functional, cell-based
# [5] = cells; type: functional, cell-based; remark: listed apart in the source
# [6] = test system: H9c2; test: cells; type: functional, cell-based; conditions: Rattus norvegicus, H9c2, Myocardium;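 note: confirmatory concentration-response retest of ultra-high-throughput screening hits for modulation of myocardial damage; cell death induced by hydrogen peroxide oxidative stress; compound pretreatment for 60 min then peroxide exposure for 2 h; potency is for protecting the cells against peroxide damage rather than for killing them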
# [7] = cytotoxicity toward NIH3T3 fibroblasts, dose response, counter-screen, cell-based, ATP luminescence, mouse fibroblasts (AID 2010); type: functional;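 note: cells exposed to compound for about 90 hours before reading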
# [8] = molecular target: Heat shock protein HSP 90-alpha (Homo sapiens, UniProt P07900); type: functional, organism-based
# [9] = inhibitors of intracellular T. cruzi replication, confirmation, NIH3T3 host cells, beta-gal luminescence (AID 2044); type: functional, cell-based;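 note: intracellular parasites grown in NIH/3T3 mouse fibroblasts as host cells; luminescent beta-galactosidase reporter signal from transgenic T. cruzi replicating inside host cells; inhibitors lower the luminescence signal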
# [10] = molecular target: Cytochrome P450 2C9 (Homo sapiens, UniProt P11712)
# [11] = test system: Streptococcus sp. 'group A'; test: growth inhibition of control SK(-) GAS strain, dose response, counter-screen for streptokinase expression inhibitor project, luminescence, kanamycin, BacTiterGlo, confirmation (AID 1900); type: functional, organism-based; conditions: read-out: EC50
# [12] = molecular target: T1, Streptokinase A (Streptococcus pyogenes serotype M1, UniProt P10520); test: S. pyogenes streptokinase expression inhibitors, potency, dose response, plasminogen activation absorbance, OD405 (AID 1914); type: functional, Streptococcus pyogenes M1 GAS;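 note: secreted streptokinase activity via plasminogen activation per viability signal from cell pellet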
# T1 sequence (P10520 whole entry): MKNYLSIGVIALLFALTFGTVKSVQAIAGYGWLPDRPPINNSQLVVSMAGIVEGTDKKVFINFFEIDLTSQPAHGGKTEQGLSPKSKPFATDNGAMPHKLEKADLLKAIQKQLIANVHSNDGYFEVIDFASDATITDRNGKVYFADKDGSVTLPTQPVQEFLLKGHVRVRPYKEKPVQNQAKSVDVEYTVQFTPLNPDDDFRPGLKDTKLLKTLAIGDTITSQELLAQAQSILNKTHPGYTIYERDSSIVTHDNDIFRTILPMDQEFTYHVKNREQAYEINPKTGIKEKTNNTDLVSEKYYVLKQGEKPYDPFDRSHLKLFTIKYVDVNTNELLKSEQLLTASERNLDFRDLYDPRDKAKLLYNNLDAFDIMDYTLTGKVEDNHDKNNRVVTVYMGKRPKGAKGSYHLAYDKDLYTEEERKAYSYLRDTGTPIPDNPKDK
# [13] = test system: Streptococcus; test: Group A Streptococcus viability loss, dose response, counter-screen for streptokinase expression inhibitor project, luminescence, BacTiterGlo (AID 1915); type: functional, organism-based;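 note: potency for reduction of bacterial viability or growth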
# [14] = HEp-2 cell cytotoxicity, dose response, cytotoxicity control for RSV inhibitor project, HTS (AID 2410); type: functional; conditions: human respiratory syncytial virus
# Cytochrome P450 2D6, sequence (P10635 whole entry): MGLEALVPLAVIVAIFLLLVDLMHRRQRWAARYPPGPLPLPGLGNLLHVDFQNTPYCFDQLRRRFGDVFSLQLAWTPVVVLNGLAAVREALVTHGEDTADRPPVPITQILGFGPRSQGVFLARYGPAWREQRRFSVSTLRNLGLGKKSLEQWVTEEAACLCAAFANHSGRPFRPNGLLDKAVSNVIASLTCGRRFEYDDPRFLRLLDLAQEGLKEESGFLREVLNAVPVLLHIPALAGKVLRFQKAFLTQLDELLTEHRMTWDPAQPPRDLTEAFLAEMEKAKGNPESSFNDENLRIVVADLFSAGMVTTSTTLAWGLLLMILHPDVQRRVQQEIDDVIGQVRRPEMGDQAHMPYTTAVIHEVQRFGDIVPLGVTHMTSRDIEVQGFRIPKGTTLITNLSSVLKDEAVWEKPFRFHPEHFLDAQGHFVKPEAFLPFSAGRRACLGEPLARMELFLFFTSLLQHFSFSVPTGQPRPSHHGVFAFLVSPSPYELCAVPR
# Cytochrome P450 2C19, sequence (P33261 whole entry): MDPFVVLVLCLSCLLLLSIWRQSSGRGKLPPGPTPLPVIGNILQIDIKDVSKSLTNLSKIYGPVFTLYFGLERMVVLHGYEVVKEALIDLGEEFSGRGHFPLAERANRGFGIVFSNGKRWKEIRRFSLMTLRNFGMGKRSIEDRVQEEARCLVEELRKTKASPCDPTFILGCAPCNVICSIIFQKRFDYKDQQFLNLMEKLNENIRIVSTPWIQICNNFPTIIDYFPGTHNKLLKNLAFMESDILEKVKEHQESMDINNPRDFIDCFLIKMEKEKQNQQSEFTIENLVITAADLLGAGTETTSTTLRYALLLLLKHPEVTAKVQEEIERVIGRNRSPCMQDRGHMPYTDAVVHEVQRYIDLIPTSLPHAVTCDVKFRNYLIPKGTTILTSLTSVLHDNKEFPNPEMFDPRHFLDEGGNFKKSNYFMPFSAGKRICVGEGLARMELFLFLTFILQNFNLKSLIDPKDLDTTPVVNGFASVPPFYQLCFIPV
# Cytochrome P450 2C9, sequence (P11712 whole entry): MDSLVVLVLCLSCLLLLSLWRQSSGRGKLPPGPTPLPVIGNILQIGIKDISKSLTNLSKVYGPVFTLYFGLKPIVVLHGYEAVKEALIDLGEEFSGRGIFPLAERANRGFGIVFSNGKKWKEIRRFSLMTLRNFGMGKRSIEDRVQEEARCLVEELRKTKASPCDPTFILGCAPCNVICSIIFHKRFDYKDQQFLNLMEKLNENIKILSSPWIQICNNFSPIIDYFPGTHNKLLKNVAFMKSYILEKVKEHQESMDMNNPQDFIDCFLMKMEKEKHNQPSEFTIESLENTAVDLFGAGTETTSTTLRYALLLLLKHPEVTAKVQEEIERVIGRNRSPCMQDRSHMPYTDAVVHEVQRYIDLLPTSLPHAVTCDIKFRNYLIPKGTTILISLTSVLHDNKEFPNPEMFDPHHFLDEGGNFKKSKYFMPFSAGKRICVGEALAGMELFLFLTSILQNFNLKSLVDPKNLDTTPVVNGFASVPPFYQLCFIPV
# Cytochrome P450 3A4, sequence (P08684 whole entry): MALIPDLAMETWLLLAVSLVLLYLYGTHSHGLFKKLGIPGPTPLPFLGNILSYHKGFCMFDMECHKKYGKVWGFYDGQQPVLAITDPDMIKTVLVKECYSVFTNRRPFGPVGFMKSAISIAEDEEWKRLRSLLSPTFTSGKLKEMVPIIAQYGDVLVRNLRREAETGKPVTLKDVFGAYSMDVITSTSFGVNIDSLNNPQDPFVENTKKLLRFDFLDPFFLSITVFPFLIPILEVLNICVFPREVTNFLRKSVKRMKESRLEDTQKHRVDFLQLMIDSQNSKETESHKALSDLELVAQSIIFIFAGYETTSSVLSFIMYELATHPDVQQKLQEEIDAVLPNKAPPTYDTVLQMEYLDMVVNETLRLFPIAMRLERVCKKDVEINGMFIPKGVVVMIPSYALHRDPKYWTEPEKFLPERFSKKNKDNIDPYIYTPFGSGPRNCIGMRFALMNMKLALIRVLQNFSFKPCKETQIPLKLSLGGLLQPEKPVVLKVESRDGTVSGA
smiles,measurement,setting,value
CCCN1C(=O)C(NC(C)=O)c2cc(OC)ccc21 (stereo not drawn),AC50,[1],0.00562 µM (inconclusive)
same,AC50,[2],22.4 µM (inconclusive)
same,AC50,[3],22.4 µM (inconclusive)
Cc1ccc(C(=O)CSc2cc(C)nc(O)n2)cc1,EC50,[4],> 350 µM (not active)
same,EC50,[5],> 350 µM (not active)
COC(=O)[C@@]1(Cc2ccccc2)[C@H]2c3cc(C(=O)N(C)C)n(Cc4cc(F)c(F)c(F)c4)c3C[C@H]2CN1C(=O)c1ccccc1,AC50,[1],25.1 µM (inconclusive)
CC1CCCN(Cc2nc3c(c(=O)n(C)c(=O)n3C)n2CCCc2ccccc2)C1 (stereo not drawn),IC50,[6],12.4 µM (active)
O=C(Nc1cc(Cl)ccc1-n1cncn1)c1ccc([N+](=O)[O-])s1,EC50,[7],> 60 µM (not active)
same,AC50,[8],3.72 µM (active)
same,EC50,[9],0.207 µM (active)
Oc1ccc(Cl)cc1CNCC1CCCO1 (stereo not drawn),EC50,[4],> 350 µM (not active)
same,EC50,[5],> 350 µM (not active)
CC1(C)CC(=O)C(CC2C(=O)CC(C)(C)CC2=O)C(=O)C1,EC50,[4],98.1 µM (active)
same,EC50,[5],> 350 µM (not active)
O=C1c2ccccc2NC(c2c[nH]nc2-c2ccccc2)N1O (stereo not drawn),IC50,[6],20.8 µM (active)
c1ccc(-c2ccc(N3CC[C@@]4(CCCNC4)C3)cc2)cc1,AC50,[1],39.8 µM (inconclusive)
same,AC50,[3],20 µM (inconclusive)
CC(C(=O)N1CCOCC1)N1c2cccc3cccc(c23)S1(=O)=O (stereo not drawn),EC50,[4],> 350 µM (not active)
same,EC50,[5],> 350 µM (not active)
N=C(NOC(=O)C(c1ccccc1)c1ccccc1)c1cccnc1,EC50,[4],> 350 µM (not active)
same,EC50,[5],> 350 µM (not active)
COc1ccc(S(=O)(=O)N(C(=O)c2ccncc2)c2ccc(OC(=O)c3ccncc3)cc2)cc1,AC50,[8],1.65 µM (active)
Cc1oc(-c2ccc(Cl)cc2)nc1C[S+]([O-])CC(=O)NCCN1CCCCCC1 (stereo not drawn),EC50,[4],> 350 µM (not active)
same,EC50,[5],> 350 µM (not active)
COc1ccc(-c2nn(-c3ccccc3)cc2C(=O)N2CCN(S(=O)(=O)c3cccc(F)c3)CC2)cc1,AC50,[8],2.04 µM (active)
COc1ccc(/C=C2\N=C(c3c(-c4ccccc4)noc3C)OC2=O)cc1OC,AC50,[1],20 µM (inconclusive)
same,AC50,[10],1 µM (inconclusive)
same,AC50,[3],28.2 µM (inconclusive)
COc1ccc2nc(NC(=O)CSc3nccc(C)n3)sc2c1,EC50,[4],> 350 µM (not active)
same,EC50,[5],> 350 µM (not active)
CCCCCN(C(=O)CCC(=O)OCC(=O)c1ccc(C(C)CC)cc1)c1c(N)n(CCCC)c(=O)[nH]c1=O (stereo not drawn),EC50,[4],> 350 µM (not active)
same,EC50,[5],> 350 µM (not active)
Cc1ccc2nc(-c3ccc(NS(=O)(=O)c4ccc(F)cc4)cc3)sc2c1,EC50,[11],3.12 µM (active)
same,EC50,[12],> 150 µM (not active)
same,EC50,[13],5.33 µM (active)
same,AC50,[8],4.57 µM (active)
CSc1nnc2c3cc(F)ccc3n(C)c2n1,CC50,[14],30 µM (active)
same,AC50,[8],5.56 µM (active)
